# Test results published in patent US7989463B2, “Biccyclic compounds as GATA modulators” (Dr. Reddy's Laboratories Limited, priority 2008, dated 2011).
# Tests used:
# GATA1 = assay: GATA Assay: GATA Translucent Reporter Vector luciferase assay in transfected HepG2 cells; type: cell-based, Human; conditions: luciferase normalized to total protein
# Protocol: Human HepG2 (ATCC) cells were grown in Eagle's Minimum Essential Media (MEM) containing 10% heat inactivated Fetal Bovine Serum (FBS) (Invitrogen) and 5 mL Penicillin-Streptomycin (Invitrogen) in T75 flasks (Corning) in a 37° C./5% CO2 tissue culture incubator (Thermo Electron Corporation) prior to the study. 96-well plates (Corning) were seeded in MEM containing 10% FBS to yield ˜50% confluency. The following day, cells were transfected using FuGENE 6 transfection reagent (Roche) and […] GATA Translucent Reporter Vector (Panomics) according the manufacturer's (Roche) protocol and incubated for about 10-19 h. The next day, the cells were treated with equal volumes of vehicle, dimethyl sulfoxide (DMSO) (Hybri-Max Sterile Filtered Sigma Aldrich) or compounds of formula (I) (in DMSO) diluted in MEM containing 1% FBS. The treated cells were incubated about 8-19 h. The next day the treatment media was removed and the cells were lysed and assayed for luciferase activity using the luciferase assay system (Promega) and using the Envision plate reader (Perkin Elmer). The lysates were also used to measure total protein content with the MicroBCA protein assay kit (Pierce) using the Multiskan Ascent plate reader at 570 nm. Luciferase values were normalized to total protein and fold induction was calculated.
# Compounds that show an increase of ≧40% in luciferase levels at ≦20 μm concentration were considered as GATA activators.
SMILES,melting point,GATA1 Activation (Fold Change Vs Control) (GATA1; 5μ compound),GATA1 Activation (Fold Change Vs Control) (GATA1; 10μ compound)
"O=C(O)C1(c2ccc(Nc3nc(C4CCCC4)nc4c3CCC4)cc2)CCCC1 [Example 1, 1-[4-(2-cyclopentyl-6,7-dihydro-5H-cyclopentapyrimidin-4-ylamino)-phenyl]-cyclopentanecarboxylic acid]",321 to 325 °C,–,–
"O=C(O)C1(c2ccc(Nc3nc(N4CCOCC4)nc4c3CCC4)cc2)CCC1 [Example 4, 1-[4-(2-morpholin-4-yl-6,7-dihydro-5H-cyclopentapyrimidin-4-ylamino)-phenyl]-cyclobutanecarboxylic acid]",279 to 281 °C,2.45 Fold Change Vs Control,3.45 Fold Change Vs Control
"O=C(O)C1(c2ccc(Nc3nc(N4CCC(O)CC4)nc4c3CCC4)cc2)CCC1 [Example 5, 1-{4-[2-(4-hydroxy-piperidin-1-yl)-6,7-dihydro-5H-cyclopentapyrimidin-4-ylamino]-phenyl}-cyclobutanecarboxylic acid]",165 to 167 °C,–,–
"O=C(O)C1(c2ccc(Nc3nc(N4CCCC4)nc4c3CCC4)cc2)CCC1 [Example 6, 1-[4-(2-pyrrolidin-1-yl-6,7-dihydro-5H-cyclopentapyrimidin-4-ylamino)-phenyl]-cyclobutanecarboxylic acid]",245 to 247 °C,–,–
"Cn1cc(-c2nc3c(c(Nc4ccc(C5(C(=O)O)CCC5)cc4)n2)CCC3)cn1 [Example 7, 1-{4-[2-(1-methyl-1H-pyrazol-4-yl)-6,7-dihydro-5H-cyclopentapyrimidin-4-ylamino]-phenyl}-cyclobutanecarboxylic acid]",–,1.79 Fold Change Vs Control,2.09 Fold Change Vs Control
"CC(=O)c1ccc(-c2nc3c(c(Nc4ccc(C5(C(=O)O)CCC5)cc4)n2)CCC3)cc1 [Example 9, 1-{4-[2-(4-acetyl-phenyl)-6,7-dihydro-5H-cyclopentapyrimidin-4-ylamino]-phenyl}-cyclobutanecarboxylic acid]",–,2.90 Fold Change Vs Control,3.50 Fold Change Vs Control
"CC(C)(C)Nc1nc(Nc2ccc(C3(C(=O)O)CCCC3)cc2)nc2c1CCC2 [Example 10, 1-[4-(4-tert-butylamino-6,7-dihydro-5H-cyclopentapyrimidin-2-ylamino)-phenyl]-cyclopentanecarboxylic acid]",–,2.07 Fold Change Vs Control,2.43 Fold Change Vs Control
"O=C(O)C1(c2ccc(Nc3nc(Nc4cccc(F)c4)nc4c3CCC4)cc2)CCC1 [Example 12, 1-{4-[2-(3-fluoro-phenylamino)-6,7-dihydro-5H-cyclopentapyrimidin-4-ylamino]-phenyl}-cyclobutanecarboxylic acid]",–,3.22 Fold Change Vs Control,3.38 Fold Change Vs Control
"O=C(O)C1(c2ccc(Nc3nc(NC4CCCC4)nc4c3CCC4)cc2)CCC1 [Example 13, 1-[4-(2-cyclopentylamino-6,7-dihydro-5H-cyclopentapyrimidin-4-ylamino)-phenyl]-cyclobutanecarboxylic acid]",–,1.94 Fold Change Vs Control,1.67 Fold Change Vs Control
